Reference: PubChem BioAssay AID220 (DTP/NCI, 2004)
Several values for one entry are separate records, joined by “and”; a condition that tells them apart may be missing. Equal entries are not always repeated. Records with an inconclusive call do not appear.

System: CD8F1 mice, subcutaneous mammary adenocarcinoma, T/C%
Assay: NCI In Vivo Anticancer Drug Screen. Data for tumor model Mammary Adenocarcinoma CD8F1 (subcutaneous) in CD8F1
Settings: higher = larger tumour
Procedure, shortened: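 Compound-treated versus vehicle-treated mice with transplantable tumors; survival or tumor size compared as T/C.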

[1] = endpoint: median tumor weight change, dose: 125.0 mg/kg/injection, schedule: Q01DX001 (ip), vehicle: saline with Tween-80
[2] = endpoint: median tumor weight change, dose: 250.0 mg/kg/injection, schedule: Q01DX001 (ip), vehicle: saline with Tween-80
[3] = endpoint: median tumor weight change, dose: 500.0 mg/kg/injection, schedule: Q01DX001 (ip), vehicle: saline with Tween-80
[4] = endpoint: median tumor weight change, dose: 62.5 mg/kg/injection, schedule: Q01DX001 (ip), vehicle: saline with Tween-80
[5] = endpoint: median tumor weight (est.), dose: 50.0 mg/kg/injection, schedule: Q07DX005 (ip), vehicle: Klucel (hydroxypropylcellulose) (HPC)
[6] = endpoint: median tumor weight (est.), dose: 100.0 mg/kg/injection, schedule: Q07DX005 (ip), vehicle: Klucel (hydroxypropylcellulose) (HPC)
[7] = endpoint: median tumor weight change, dose: 1000.0 mg/kg/injection, schedule: Q01DX001 (ip), vehicle: saline with Tween-80

CC[C@@H](C)[C@@H]1NC(=O)C(NC(=O)C(CC(C)C)N(C)C(=O)C2CCCN2C(=O)C(C)O)C(C)OC(=O)C(Cc2ccc(OC)cc2)N(C)C(=O)C2CCCN2C(=O)C(CC(C)C)NC(=O)C(C)C(=O)C(C(C)C)OC(=O)C[C@H]1O (some centres undefined)
T/C (endpoint: median tumor weight change, dose: 20.0 micrograms/kg/injection, schedule: Q01DX001 (ip), vehicle: distilled water + alcohol): 73 % of control | T/C (endpoint: median tumor weight change, dose: 40.0 micrograms/kg/injection, schedule: Q01DX001 (ip), vehicle: distilled water + alcohol): 55 % of control | T/C (endpoint: median tumor weight change, dose: 300.0 micrograms/kg/injection, schedule: Q01DX001 (ip), vehicle: distilled water + alcohol): 63 % of control | T/C (endpoint: median tumor weight change, dose: 320.0 micrograms/kg/injection, schedule: Q01DX001 (ip), vehicle: distilled water + alcohol): 88 % of control | T/C (endpoint: median tumor weight change, dose: 600.0 micrograms/kg/injection, schedule: Q01DX001 (ip), vehicle: distilled water + alcohol): 71 % of control | T/C (endpoint: median tumor weight change, dose: 1200.0 micrograms/kg/injection, schedule: Q01DX001 (ip), vehicle: distilled water + alcohol): 37 % of control

COc1cc2cc(c1Cl)N(C)C(=O)CC(OC(=O)C(C)N(C)C(=O)C(C)C)C1(C)OC1C(C)C1CC(O)(NC(=O)O1)C(OC)/C=C/C=C(C)C2OC (centres undefined)
T/C (endpoint: median tumor weight change, dose: 16.0 micrograms/kg/injection, schedule: Q01DX001 (ip), vehicle: Klucel (hydroxypropylcellulose) (HPC)): 73 % of control | T/C (endpoint: median tumor weight change, dose: 32.0 micrograms/kg/injection, schedule: Q01DX001 (ip), vehicle: Klucel (hydroxypropylcellulose) (HPC)): 124 % of control | T/C (endpoint: median tumor weight change, dose: 64.0 micrograms/kg/injection, schedule: Q01DX001 (ip), vehicle: Klucel (hydroxypropylcellulose) (HPC)): 82 % of control | T/C (endpoint: median tumor weight change, dose: 128.0 micrograms/kg/injection, schedule: Q01DX001 (ip), vehicle: Klucel (hydroxypropylcellulose) (HPC)): 80 % of control | T/C (endpoint: median tumor weight change, dose: 256.0 micrograms/kg/injection, schedule: Q01DX001 (ip), vehicle: Klucel (hydroxypropylcellulose) (HPC)): 64 % of control

OC(C1CO1)C(O)C1CO1 (centres undefined)
T/C (endpoint: median tumor weight (est.), dose: 0.5 mg/kg/injection, schedule: Q07DX005 (ip), vehicle: saline): 49 % of control | T/C (endpoint: median tumor weight (est.), dose: 1.0 mg/kg/injection, schedule: Q07DX005 (ip), vehicle: saline): 28 % of control | T/C (endpoint: median tumor weight (est.), dose: 2.0 mg/kg/injection, schedule: Q07DX005 (ip), vehicle: saline): 37 % of control | T/C (endpoint: median tumor weight (est.), dose: 4.0 mg/kg/injection, schedule: Q07DX005 (ip), vehicle: saline): 13 % of control | T/C (endpoint: median tumor weight (est.), dose: 8.0 mg/kg/injection, schedule: Q07DX005 (ip), vehicle: saline): 5 % of control

NC(=O)c1csc(C2OC(CO)C(O)C2O)n1 (centres undefined)
T/C (endpoint: median tumor weight change, dose: 125.0 mg/kg/injection, schedule: Q01DX001 (ip), vehicle: water): 87 % of control and 96 % of control | T/C (endpoint: median tumor weight change, dose: 500.0 mg/kg/injection, schedule: Q01DX001 (ip), vehicle: water): 11 % of control and 35 % of control | T/C (endpoint: median tumor weight change, dose: 2000.0 mg/kg/injection, schedule: Q01DX001 (ip), vehicle: water): 55 % of control

N=c1nc2n(cc1F)[C@@H]1O[C@H](CO)[C@@H](O)[C@@H]1O2
T/C (endpoint: median tumor weight (est.), dose: 12.5 mg/kg/injection, schedule: Q07DX005 (ip), vehicle: saline): 25 % of control | T/C (endpoint: median tumor weight (est.), dose: 50.0 mg/kg/injection, schedule: Q07DX005 (ip), vehicle: saline): 71 % of control | T/C (endpoint: median tumor weight (est.), dose: 50.0 mg/kg/injection, schedule: Q07DX005 (ip), vehicle: suspension in saline): 86 % of control | T/C (endpoint: median tumor weight (est.), dose: 100.0 mg/kg/injection, schedule: Q07DX005 (ip), vehicle: saline): 68 % of control | T/C (endpoint: median tumor weight (est.), dose: 100.0 mg/kg/injection, schedule: Q07DX005 (ip), vehicle: suspension in saline): 57 % of control | T/C (endpoint: median tumor weight (est.), dose: 200.0 mg/kg/injection, schedule: Q07DX005 (ip), vehicle: saline): 56 % of control | T/C (endpoint: median tumor weight (est.), dose: 200.0 mg/kg/injection, schedule: Q07DX005 (ip), vehicle: suspension in saline): 63 % of control | T/C (endpoint: median tumor weight (est.), dose: 400.0 mg/kg/injection, schedule: Q07DX005 (ip), vehicle: saline): 33 % of control | T/C (endpoint: median tumor weight (est.), dose: 400.0 mg/kg/injection, schedule: Q07DX005 (ip), vehicle: suspension in saline): 69 % of control | T/C (endpoint: median tumor weight (est.), dose: 800.0 mg/kg/injection, schedule: Q07DX005 (ip), vehicle: suspension in saline): 58 % of control | T/C (endpoint: median tumor weight (est.), dose: 1600.0 mg/kg/injection, schedule: Q07DX005 (ip), vehicle: suspension in saline): 72 % of control

COc1cc(NCc2ccc3nc(N)nc(N)c3c2C)cc(OC)c1OC (tested in a mixture with another compound)
T/C (endpoint: median tumor weight (est.), dose: 32.0 mg/kg/injection, schedule: Q04DX007 (ip), vehicle: water): 87 % of control | T/C (endpoint: median tumor weight (est.), dose: 46.0 mg/kg/injection, schedule: Q07DX005 (ip), vehicle: water): 24 % of control | T/C (endpoint: median tumor weight (est.), dose: 47.4 mg/kg/injection, schedule: Q04DX007 (ip), vehicle: water): 35 % of control | T/C (endpoint: median tumor weight (est.), dose: 70.0 mg/kg/injection, schedule: Q07DX005 (ip), vehicle: water): 27 % of control | T/C (endpoint: median tumor weight (est.), dose: 71.1 mg/kg/injection, schedule: Q04DX007 (ip), vehicle: water): 113 % of control | T/C (endpoint: median tumor weight (est.), dose: 105.0 mg/kg/injection, schedule: Q07DX005 (ip), vehicle: water): 24 % of control | T/C (endpoint: median tumor weight (est.), dose: 106.7 mg/kg/injection, schedule: Q04DX007 (ip), vehicle: water): 42 % of control | T/C (endpoint: median tumor weight (est.), dose: 157.0 mg/kg/injection, schedule: Q07DX005 (ip), vehicle: water): 13 % of control | T/C (endpoint: median tumor weight (est.), dose: 160.0 mg/kg/injection, schedule: Q04DX007 (ip), vehicle: water): 32 % of control

CC1(C)OC1CS(=O)c1ccccc1 (centres undefined)
T/C [1]: 160 % of control | T/C [2]: 83 % of control and 92 % of control | T/C [3]: 72 % of control and 94 % of control

CN=S(=O)(OCCCCCOS(=O)(=NC)c1ccccc1)c1ccccc1 (centres undefined)
T/C (endpoint: median tumor weight change, dose: 62.0 mg/kg/injection, schedule: Q01DX001 (ip), vehicle: saline with Tween-80): 121 % of control | T/C [4]: 59 % of control | T/C [2]: 63 % of control and 83 % of control | T/C [3]: 20 % of control

Cc1ccc(S(=O)(=O)N/N=C/C(=O)O)cc1
T/C (endpoint: median tumor weight (est.), dose: 12.5 mg/kg/injection, schedule: Q07DX005 (ip), vehicle: Klucel (hydroxypropylcellulose) (HPC)): 60 % of control | T/C (endpoint: median tumor weight (est.), dose: 12.5 mg/kg/injection, schedule: Q07DX005 (ip), vehicle: other): 97 % of control | T/C (endpoint: median tumor weight (est.), dose: 25.0 mg/kg/injection, schedule: Q07DX005 (ip), vehicle: Klucel (hydroxypropylcellulose) (HPC)): 120 % of control | T/C (endpoint: median tumor weight (est.), dose: 25.0 mg/kg/injection, schedule: Q07DX005 (ip), vehicle: other): 70 % of control and 76 % of control | T/C [5]: 62 % of control | T/C [6]: 53 % of control

C/C=C(\C)c1cc(=O)c2c(C)cc3c(c2o1)C(=O)c1c(O)c(C2CC(C)(N(C)C)C(O)C(C)O2)cc(C2CC(N(C)C)C(O)C(C)O2)c1C3=O (centres undefined)
T/C (endpoint: median tumor weight change, dose: 0.16 mg/kg/injection, schedule: Q01DX001 (ip), vehicle: saline): 78 % of control | T/C (endpoint: median tumor weight change, dose: 0.31 mg/kg/injection, schedule: Q01DX001 (ip), vehicle: saline): 51 % of control | T/C (endpoint: median tumor weight change, dose: 0.62 mg/kg/injection, schedule: Q01DX001 (ip), vehicle: saline): 52 % of control | T/C (endpoint: median tumor weight change, dose: 2.5 mg/kg/injection, schedule: Q01DX001 (ip), vehicle: suspension in saline): 61 % of control | T/C (endpoint: median tumor weight change, dose: 5.0 mg/kg/injection, schedule: Q01DX001 (ip), vehicle: suspension in saline): 42 % of control | T/C (endpoint: median tumor weight change, dose: 10.0 mg/kg/injection, schedule: Q01DX001 (ip), vehicle: saline): -9 % of control

CCCCOCN(COCCCC)C(C)Cc1ccccc1 (centres undefined)
T/C [4]: 100 % of control | T/C [1]: 85 % of control | T/C [2]: 110 % of control | T/C [7]: 80 % of control

CC[C@H](CC[C@@H](C)C1CC[C@H]2[C@@H]3CC=C4C[C@@H](OP(=O)(N5CC5)N5CC5)CC[C@]4(C)[C@H]3CC[C@]12C)C(C)C (some centres undefined)
T/C (endpoint: median tumor weight (est.), dose: 25.0 mg/kg/injection, schedule: Q07DX005 (ip), vehicle: saline with Tween-80): 77 % of control | T/C (endpoint: median tumor weight (est.), dose: 50.0 mg/kg/injection, schedule: Q07DX005 (ip), vehicle: saline with Tween-80): 56 % of control and 75 % of control | T/C (endpoint: median tumor weight (est.), dose: 200.0 mg/kg/injection, schedule: Q07DX005 (ip), vehicle: saline with Tween-80): 72 % of control and 75 % of control | T/C [1]: 82 % of control | T/C [7]: 41 % of control and 44 % of control | T/C (endpoint: median tumor weight change, dose: 2000.0 mg/kg/injection, schedule: Q01DX001 (ip), vehicle: saline with Tween-80): 9 % of control and 14 % of control

CCC(C(=O)O)C(=O)O.[NH-]CC1CCCC[N-]1.[Pt+2]
T/C (endpoint: median tumor weight change, dose: 125.0 mg/kg/injection, schedule: Q01DX001 (ip), vehicle: saline): 51 % of control

CC1=CC(=Nc2ccc(N(CCCl)CCCl)cc2)C=C(C)C1=O
T/C (endpoint: median tumor weight (est.), dose: 6.25 mg/kg/injection, schedule: Q07DX005 (ip), vehicle: Klucel (hydroxypropylcellulose) (HPC)): 61 % of control and 69 % of control | T/C [5]: 32 % of control and 44 % of control | T/C [6]: 45 % of control

CC(=O)CC(C)=O.CC(=O)CC(C)=O.O=N[O-].O=N[O-].[Co]
T/C [4]: 96 % of control | T/C [1]: 38 % of control
